pIC50: −log10 of the molar value. Activity calls are given as the source filed them. The rule behind the calls is not given here.

Usually IC50 stands for the point on the concentration scale where inhibition reaches its midpoint. The pIC50 is the negative decadic logarithm of the IC50, by convention in mol/L.

The test system of this assay is HeLa, chromatin condensation phenotype imaging. In words: HeLa chromatin condensation increase, dose response, imaging, IC50 (AID 1117350).
Regarding `O=[N+]([O-])c1ccc(Oc2ccc(N=C=S)cc2)cc1`, the IC50 is > 10 µM (inactive). As for `Oc1c(Cl)cc(Cl)c2cccnc12`, the IC50 is > 10 µM (inactive).

In the case of `Nc1nc(=S)c2[nH]cnc2[nH]1`, the IC50 was > 10 µM (inactive). With `C[C@@]12C(=O)OC(=O)[C@]1(C)C1CCC2O1`, the IC50 is 8.5 µM (inactive). Consider `CCCNCC(O)COc1ccccc1C(=O)CCc1ccccc1` (configuration not stated), for which the IC50 is > 10 µM (inactive).

Regarding `CCCCOC(=O)c1ccc(N)cc1`, the IC50 is > 10 µM (inactive). Turning to `COC(=O)c1nc(Cl)c(Cl)nc1N`, the negative logarithm of the IC50 (pIC50) is 6.06.

The values above are taken from PubChem BioAssay AID1117350 (Cheminformatics & Chemogenomics Research Group (CCRG), …, 2015).
